The compounds below were run against T1, CCR2 (Homo sapiens, UniProt P41597) (assay: MCP-1 Receptor Binding Assay in THP-1 Cells (125I labeled MCP-1)). Settings: 0.5 nM 125I labeled MCP-1, 2 hours at 30° C., read-out: Inhibition of MCP-1 Binding IC50, CCR2 Binding.
T1 construct: host or cells: THP-1 (human monocytic cell line)
T1 sequence (P41597 1-360 isoform P41597-2): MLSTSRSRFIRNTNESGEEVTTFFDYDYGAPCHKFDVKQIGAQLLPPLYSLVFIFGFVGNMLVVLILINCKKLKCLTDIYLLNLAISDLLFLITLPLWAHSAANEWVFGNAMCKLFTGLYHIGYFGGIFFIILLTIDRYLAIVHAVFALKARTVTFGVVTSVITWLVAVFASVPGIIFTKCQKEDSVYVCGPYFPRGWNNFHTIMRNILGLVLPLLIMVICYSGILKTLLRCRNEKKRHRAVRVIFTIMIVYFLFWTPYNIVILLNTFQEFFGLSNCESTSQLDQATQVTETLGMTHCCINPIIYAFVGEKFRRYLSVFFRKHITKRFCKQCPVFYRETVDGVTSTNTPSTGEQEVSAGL
Method: Compounds of the invention were subjected to various representative biological tests. […] MCP-1 Receptor Binding Assay in THP-1 Cells
Human monocytic cell line THP-1 cells were obtained from American Type Culture Collection (Manassas, Va., USA). […] The cell density was maintained […].
1 μM cold MCP-1 was used for nonspecific binding.

| IC50 [nM] | Structure (SMILES) |
| --- | --- |
| 130 | N#CCn1cc(C2CCC(N3CC(NC(=O)CNC(=O)c4cccc(C(F)(F)F)c4)C3)CC2)ccc1=O (stereo not drawn) [Example 41, N-({1-[4-(1-Cyanomethyl-6-oxo-1,6-dihydro-pyridin-3-yl)-cyclohexyl]-azetidin-3-ylcarbamoyl}-methyl)-3-trifluoromethyl-benzamide] |
| 330 | O=C(CNC(=O)c1cccc(C(F)(F)F)c1)NC1CN(C2CCC(c3ccc(=O)n(CCO)c3)CC2)C1 (stereo not drawn) [Example 43, N-[(1-{4-[1-(2-Hydroxy-ethyl)-6-oxo-1,6-dihydro-pyridin-3-yl]-cyclohexyl}-azetidin-3-ylcarbamoyl)-methyl]-3-trifluoromethyl-benzamide] |
| 180 | O=C(CNC(=O)c1cccc(C(F)(F)F)c1)NC1CN(C2CCC(c3cccc(=O)[nH]3)CC2)C1 (stereo not drawn) [Example 47, N-({1-[4-(6-Oxo-1,6-dihydro-pyridin-2-yl)-cyclohexyl]-azetidin-3-ylcarbamoyl}-methyl)-3-trifluoromethyl-benzamide] |
| 630 | Cn1cccc(C2CCC(N3CC(NC(=O)CNC(=O)c4cccc(C(F)(F)F)c4)C3)CC2)c1=O (stereo not drawn) [Example 48, N-({1-[4-(1-Methyl-2-oxo-1,2-dihydro-pyridin-3-yl)-cyclohexyl]-azetidin-3-ylcarbamoyl}-methyl)-3-trifluoromethyl-benzamide] |
| > 25000 | O=C(CNC(=O)c1ccccc1)NC1CN(C2CCC(c3c[nH]c4ccccc34)CC2)C1 (stereo not drawn) [Example 49, N-({1-[4-(1H-Indol-3-yl)-cyclohexyl]-azetidin-3-ylcarbamoyl}-methyl)-benzamide] |
| 920 | O=C(CNC(=O)c1cccc(C(F)(F)F)c1)NC1CN(C2CCC(c3c[nH]c4ccccc34)CC2)C1 (stereo not drawn) [Example 50, N-({1-[4-(1H-Indol-3-yl)-cyclohexyl]-azetidin-3-ylcarbamoyl}-methyl)-3-trifluoromethyl-benzamide] |
| 1000 | NC(=O)c1ncc(C2CCC(N3CC(NC(=O)CNC(=O)c4cccc(C(F)(F)F)c4)C3)CC2)s1 (stereo not drawn) [Example 53, 5-(4-{3-[2-(3-Trifluoromethyl-benzoylamino)-acetylamino]-azetidin-1-yl}-cyclohexyl)-thiazole-2-carboxylic acid amide] |
| 340 | O=C(CNC(=O)c1cccc(C(F)(F)F)c1)NC1CN(C2CCC(c3c[nH]c(=O)s3)CC2)C1 (stereo not drawn) [Example 54, N-({1-[4-(2-Oxo-2,3-dihydro-thiazol-5-yl)-cyclohexyl]-azetidin-3-ylcarbamoyl}-methyl)-3-trifluoromethyl-benzamide] |
| 125 | Nc1noc(N)c1C1CCC(N2CC(NC(=O)CNC(=O)c3cccc(C(F)(F)F)c3)C2)CC1 (stereo not drawn) [Example 55, N-({1-[4-(3,5-Diimino-isoxazolidin-4-yl)-cyclohexyl]-azetidin-3-ylcarbamoyl}-methyl)-3-trifluoromethyl-benzamide] |
| 5800 | Cn1cc(C2CCC(N3CC(NC(=O)CNC(=O)c4cccc(C(F)(F)F)c4)C3)CC2)c(=O)[nH]c1=O (stereo not drawn) [Example 56, N-({1-[4-(1-Methyl-2,4-dioxo-1,2,3,4-tetrahydro-pyrimidin-5-yl)-cyclohexyl]-azetidin-3-ylcarbamoyl}-methyl)-3-trifluoromethyl-benzamide] |
| 1100 | O=C(CNC(=O)c1cccc(C(F)(F)F)c1)NC1CN(C2CCC(c3noc(=O)[nH]3)CC2)C1 (stereo not drawn) [Example 57, N-({1-[4-(5-Oxo-4,5-dihydro-[1,2,4]oxadiazol-3-yl)-cyclohexyl]-azetidin-3-ylcarbamoyl}-methyl)-3-trifluoromethyl-benzamide] |
| 510 | O=C(CNC(=O)c1cccc(C(F)(F)F)c1)NC1CN(C2CCC(c3noc(C(Cl)(Cl)Cl)n3)CC2)C1 (stereo not drawn) [Example 58, N-({1-[4-(5-Trichloromethyl-[1,2,4]oxadiazol-3-yl)-cyclohexyl]-azetidin-3-ylcarbamoyl}-methyl)-3-trifluoromethyl-benzamide] |
